Tests used:
Assay type in all cases: cell-based
Human GPR54 receptor = biological target: T1, Human GPR54 receptor (Homo sapiens, UniProt Q969F8, L364H); assay: aequorin assay in HEK293/aeq17 cells expressing human GPR54; conditions: aequorin luminescence, 5-fold serial dilutions, triplicates
T1 construct: Clones containing full-length GPR54 were thus identified; expressed in transfected cells
Experimental: The HEK293/aeq17 cell line was licensed in from NIH (Button and Brownstein, 1993, Cell Calcium, 14:663-671). The cells were grown in Dulbecco's Modified Medium (MEM, GIBCO-BRL, Gaithersburg, Md., USA)+10% fetal bovine serum (heat inactivated), 1 mM sodium pyruvate, 500 ug/ml Geneticin, 100 ug/ml streptomycin, 100 units/ml penicillin. […] Puromycin-resistant clones were selected and bulk stables were used for further analysis.
For the aequorin assay, cell were washed once with DMEM+0.1% fetal bovine serum, and then charged for one hour at 37° C. 15% CO2 in DMEM containing 8 uM coelenterazine cp (Molecular Probes, Eugene, Oreg., USA) and 30 uM glutathione. […] The cell density was determined by counting with a hemacytometer and adjusted to 500,000 cells/ml in ECB.
The neuropeptides were diluted in ECB into 2× concentrates using 5-fold serial dilutions, and aliquoted into assay plates in triplicates at 0.1 ml/well. The cell suspension was injected at 0.1 ml/well, read and integrated for a total of 400 readings using a luminometer (Luminoskan Ascent, Labsystems Oy, Helsinki, Finland). Data was analyzed using the software GraphPad Prism Version 3.0 (GraphPad Software, Inc., San Diego, Calif., USA).

[1] = tested on: Control cells (cells that do not express rat GPR54); assay: β-lactamase reporter assay in control cells; conditions: data not shown
Experimental: (§1) β-lactamase assays were carried as described by (Zlokarnik et al., 1998, Quantitation of transcription and clonal selection of single living cells with beta-lactamase as reporter. Science 1998, 279:84-88). All peptides were from Phoenix Pharmaceuticals. Cells were seeded two days prior to assay. The day before being assayed, cells were changed to serum-free media. Four (4) hours after the addition of ligands, cells were loaded with dye and measured for fluorescence approximately 45 minutes later.
These peptides were then individually tested against GPR54-expressing cells.

rat GPR54 = biological target: T2, rat GPR54 (Rattus norvegicus, UniProt Q924U1); assay: β-lactamase reporter enzyme assay in CHO-NPAT-bla cells expressing rat GPR54
T2 construct: expressed in transfected cells
T2 sequence (Q924U1 whole entry): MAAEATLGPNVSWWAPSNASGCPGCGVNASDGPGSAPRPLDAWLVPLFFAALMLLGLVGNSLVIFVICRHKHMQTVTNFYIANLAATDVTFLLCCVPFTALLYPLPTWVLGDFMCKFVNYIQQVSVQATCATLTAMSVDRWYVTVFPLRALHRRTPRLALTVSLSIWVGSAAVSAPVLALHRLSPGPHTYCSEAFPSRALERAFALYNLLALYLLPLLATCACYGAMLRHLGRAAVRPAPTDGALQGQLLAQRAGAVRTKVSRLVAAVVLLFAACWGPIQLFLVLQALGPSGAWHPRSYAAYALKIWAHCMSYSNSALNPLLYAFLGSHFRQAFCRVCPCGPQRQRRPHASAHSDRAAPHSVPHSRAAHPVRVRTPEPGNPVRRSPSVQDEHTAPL
Experimental: The full-length coding sequence of rat GPR54 was sub-cloned into the expression vector pIRESpuromycin (Clontech, Palo Alto, Calif., USA) in accordance with the manufactures directions. This GPR54 plasmid was transfected into Aurora's CHO-NPAT-bla cells using the reagent Lipofectamine 2000 (GIBCO-BRL, Gaithersburg, Md., USA). Puromycin-resistant bulk stables expressing rat GPR54 were selected and used for screening for agonist.
as §1, with “Cells were seeded two days prior to assay. The day before being assayed, cells were changed to serum-free media.” left out
An extremely sensitive transcription-based assay is disclosed in Zlokarnik et al., 1998, Science 279:84-88 (Zlokarnik) and also in U.S. Pat. No. 5,741,657, both of which are incorporated by reference in their entirety herein. […] This increase in β-lactamase is measured by treating the cells with a cell-permeable dye that is a substrate for cleavage by β-lactamase. […] In the intact dye, the two fluorescent moieties are physically linked, and thus close enough to one another that fluorescence resonance energy transfer FRET) can take place between them. […]

T1 sequence (Q969F8 whole entry L364H): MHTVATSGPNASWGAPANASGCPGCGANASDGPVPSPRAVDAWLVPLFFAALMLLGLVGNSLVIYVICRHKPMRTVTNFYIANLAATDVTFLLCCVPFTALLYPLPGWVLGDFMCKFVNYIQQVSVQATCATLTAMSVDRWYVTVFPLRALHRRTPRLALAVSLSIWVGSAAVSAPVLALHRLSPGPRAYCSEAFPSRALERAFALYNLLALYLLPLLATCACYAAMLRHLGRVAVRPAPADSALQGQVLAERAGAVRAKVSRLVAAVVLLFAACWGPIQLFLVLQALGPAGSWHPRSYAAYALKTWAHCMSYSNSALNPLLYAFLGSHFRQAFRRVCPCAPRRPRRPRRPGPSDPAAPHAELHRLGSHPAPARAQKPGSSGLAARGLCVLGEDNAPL

response of cells expressing Human GPR54 receptor (FIG. 9) (Human GPR54 receptor)	activation of rat GPR54 in the primary screening (rat GPR54; primary agonist screening, cells expressing rat GPR54, β-lactamase readout 4 hours after ligand addition)	Substance	response of control cells [1]	dose-response activation of rat GPR54 (FIG. 8) (rat GPR54; peptides individually tested against GPR54-expressing cells)
robust, dose-dependent response	–	antho-RW amide II	–	–
robust, dose-dependent response	activate rat GPR54 specifically	antho-RWamide I	no response	activated rat GPR54 in a dose-dependent manner

— patent publication US20050075494A1, “Isolated nucleic acid molecules encoding a human and mouse g protein-coupled receptor-gpr54: encoded proteins, cells transformed therewith and uses thereof” (priority 2000, published 2005)
